This note sets out measurements from patent EP1674467A1, “2,5- and 2,6-disubstituted benzazole derivatives useful as protein kinase inhibitors” (4SC AG, priority 2004, dated 2006).

The target of the assay is at least one kinase selected from Aurora-A, Aurora-B, EGF-R, ERBB2, PDGFR, IGF1-R, VEGF-R2, VEGF-R3, EPHB4, Tie2, and SRC. The experiment in a line: 33PanQinase Activity Assay (protein kinase assay). The assay is classed as biochemical, human. The note with it: on at least one kinase of the listed panel, or on at least two kinases from at least two different molecular mechanisms of tumor progression; 1 µM [γ-33P]-ATP, 30°C, 80 minutes. As to the method:
The effect of the benzazole derivatives was tested on recombinant, human protein kinases. All protein kinases were expressed in Sf9 insect cells as human recombinant GST-fusion proteins or as His-tagged proteins by means of the baculovirus expression system. Protein kinases were purified by affinity chromatography using either GSH-agarose or Ni-NTH-agarose. The purity and identity of each was checked by SDS-PAGE/silver staining and by western blot analysis with specific antibodies.
A proprietary protein kinase assay (^33PanQinase® Activity Assay) was used for measuring the kinase activity. All kinase assays were performed in 96-well FlashPlates™ in a 50 µl reaction volume. The assay for all enzymes contained 60 mM HEPES-NaOH, pH 7.5, 3 mM MgCl2, 3 mM MnCl2, 3 µM Na-orthovanadate, 1.2 mM DTT, 50 µg/ml PEG20000 and 1 µM [γ-^33P]-ATP (approx. 5x10^5 cpm per well). The reaction cocktails were incubated at 30°C for 80 minutes. The reaction was stopped with 50 µl of 2% (v/v) H3PO4, plates were aspirated and washed two times with 200 µl of 0.9% (w/v) NaCl. Incorporation of ^33Pi was determined with a microplate scintillation counter. All assays were performed with a BeckmanCoulter/ Sagian robotic system.

Some results are limits rather than exact numbers.

Usually IC50 stands for the concentration at which inhibition is half-maximal. A higher IC50 goes with lower potency. With `COc1cc2ncnc(Nc3nc4ccc(NC(=O)c5cccc(OC(F)(F)F)c5)cc4s3)c2cc1OC` [Example 11, N-[2-(6,7-Dimethoxyquinazolin-4-ylamino)-benzothiazol-6-yl]-3-trifluoromethoxybenzamide], the IC50 is below 500 nM.

For the molecule `COc1cc2ncnc(Nc3nc4ccc(NC(=O)Nc5ccccc5)cc4s3)c2cc1OC` [Example 12, 1-[2-(6,7-Dimethoxyquinazolin-4-ylamino)benzothiazol-6-yl]-3-phenylurea], the IC50 was below 500 nM. To `COc1cc2ncnc(Nc3nc4ccc(NC(=O)Nc5cccc(F)c5)cc4s3)c2cc1OC` [Example 14, 1-[2-(6,7-Dimethoxyquinazolin-4-ylamino)benzothiazol-6-yl]-3-(3-fluorophenyl)urea] belongs below 500 nM; to `COc1cc2ncnc(Nc3nc4ccc(NC(=O)Nc5cccc(C(F)(F)F)c5)cc4s3)c2cc1OC` [Example 15, 1-[2-(6,7-Dimethoxyquinazolin-4-ylamino)benzothiazol-6-yl]-3-(3-trifluoromethylphenyl)urea], below 500 nM; to `COc1cc2ncnc(Nc3nc4ccc(NC(=O)Nc5ccc(Cl)c(C(F)(F)F)c5)cc4s3)c2cc1OC` [Example 18, 1-(4-Chloro-3-trifluoromethylphenyl)-3-[2-(6,7-dimethoxyquinazolin-4-yl-amino)benzothiazol-6-yl]urea], below 500 nM. To `COc1cc2c(Nc3nc4ccc(NC(=O)Nc5ccc(Cl)c(C(F)(F)F)c5)cc4s3)ncnc2cc1OCCCN1CCN(C)CC1` [Example 19, 1-(4-Chloro-3-trifluoromethylphenyl)-3-(2-{6-methoxy-7-[3-(4-methylpiperazin-1-yl)-propoxy]quinazolin-4-ylamino}benzothiazol-6-yl)urea] belongs below 500 nM.

As to `COc1cc2ncnc(Nc3nc4cc(NC(=O)Nc5ccc(Cl)c(C(F)(F)F)c5)ccc4s3)c2cc1OC` [Example 20, 1-(4-Chloro-3-trifluoromethylphenyl)-3-[2-(6,7-dimethoxyquinazolin-4-yl-amino)benzothiazol-5-yl]urea], the IC50 was below 500 nM.
